Test results reported in paper PMC4278837, “A Cyclic Peptidic Serine Protease Inhibitor: Increasing Affinity by Increasing Peptide Flexibility” (PLoS ONE, 2014).
Where two headings read alike, the source gives them in different places. Bridge positions count the residues as written; N and C are the ends. Square brackets hold non-standard residues; d marks the D form. Peptide text beside a SMILES is read from it. Ala(1-amidino-4-piperidyl) = N=C(N)N1CCC(C[C@H](N)C(=O)O)CC1; Phe(4-guanidino) = N=C(N)Nc1ccc(C[C@H](N)C(=O)O)cc1

Columns and labels:
[1] = molecular target: T1, huPA-H99Y R35A (Homo sapiens, UniProt P00749, H272Y/R198A); test: Ki for inhibition of huPA-H99Y-R35A, chromogenic substrate; assay type: biochemical; conditions: 37°C; means ± S.D.; read-out: K i for inhibition of huPA-H99Y-R35A
T1 construct: To ensure that the uPAs purified from the conditioned media were completely in the two-chain form, they were treated with plasmin; hexa-His (C); made in house; host or cells: HEK293 6E suspension cells
From the text: (§1) Determination of Ki values
(§2) The initial reaction velocities were monitored at an absorbance of 405 nm. The inhibition constants (K i) were subsequently determined from the non-linear regression analyses of plots for V i/V o versus [I]0, using Equation 2, derived under assumption of competitive inhibition:
(§3) [drawing 2] (2) where V i and V 0 are the reaction velocities in the presence and absence of inhibitor, respectively; [S]0 and [I]0 are the substrate and inhibitor concentrations, respectively; K M is K M for substrate hydrolysis by each protease. In Equation 2, it is assumed that [S]free ≈ [S]0 and [I]free ≈ [I]0.

[2] = molecular target: huPA-H99Y Q192A (Homo sapiens, UniProt P00749, H272Y/Q373A); test: Ki for inhibition of huPA-H99Y-Q192A, chromogenic substrate; assay type: biochemical; set-up: To ensure that the uPAs purified from the conditioned media were completely in the two-chain form, they were treated with plasmin; hexa-His (C); made in house; host or cells: HEK293 6E suspension cells; conditions: 37°C; means ± S.D.; read-out: K i for inhibition of huPA-H99Y-Q192A
From the text: as §1, §2, §3

[3] = molecular target: T2, huPA-H99Y (Homo sapiens, UniProt P00749, H272Y); test: Ki for inhibition of huPA-H99Y, chromogenic substrate S-2444; assay type: biochemical; conditions: 37°C; means ± S.D.; read-out: K i for inhibition of huPA-H99Y
T2 construct: To ensure that the uPAs purified from the conditioned media were completely in the two-chain form, they were treated with plasmin; hexa-His (C); made in house; host or cells: HEK293 6E suspension cells
From the text: as §1, §2, §3

[4] = molecular target: T3, muPA (Mus musculus, UniProt P06869); test: Surface plasmon resonance analysis of peptide binding to muPA; set-up: species or system murine; conditions: SPR, 25°C, pH 7.4
T3 construct: To ensure that the uPAs purified from the conditioned media were completely in the two-chain form, they were treated with plasmin; hexa-His (C); made in house; host or cells: HEK293 6E suspension cells
Protocol: (§4) Surface plasmon resonance (SPR) analysis
(§5) To determine the equilibrium binding constants (KD), the association rate constants (kon) and dissociation rate constants (koff) for peptide binding to uPA, surface plasmon resonance analysis was performed on a Biacore T200 instrument (Biacore, Uppsala, Sweden). A CM5 chip was coupled with the uPA variant (muPA or huPAH99Y) to be analysed, by injecting a concentration of 30 µg/mL uPA in immobilization buffer (10 mM sodium acetate, pH 5.0), aiming for an immobilised level of approximately 500 response units (RU). Immobilisation was followed by surface blocking with ethanolamine. A reference cell was prepared in the same way, without coupling of uPA. Mupain-1 variants in HBS with 0.1% BSA, in a dilution series, were injected at a flow rate of 30 µL per min during 60 s at 25°C. Subsequently, the dissociation was monitored during 600 s. Kinetic constants (k on and k off) were calculated with the Biacore Evaluation Software, using the 1∶1 kinetic fit. The K D values were calculated as k off /k on.

[5] = molecular target: T4, muPA K41A (Mus musculus, UniProt P06869, K210A); test: Ki for inhibition of muPA-K41A, chromogenic substrate; assay type: biochemical, murine; conditions: means ± S.D.; read-out: K i for inhibition of muPA-K41A
T4 construct: To ensure that the uPAs purified from the conditioned media were completely in the two-chain form, they were treated with plasmin; hexa-His (C); made in house; host or cells: HEK293 6E suspension cells
From the text: as §1, §2, §3

[6] = molecular target: T5, huPA-H99Y (Homo sapiens, UniProt P00749, C299A/H272Y/N322Q); test: Isothermal titration calorimetry for binding to huPA-H99Y catalytic domain; conditions: ITC, 25°C, pH 7.4
T5 construct: recombinant uPA catalytic domain (residues 159–411), harbouring a H99Y mutation; made in house; host or cells: Pichia pastoris X-33 (secreted)
Protocol: For these experiments, we used the catalytic domain of huPA-H99Y expressed in and purified from Pichia pastoris strain X-33 (see above). The protein was dissolved in and dialysed against a buffer of 20 mM sodium phosphate, pH 7.4, 140 mM NaCl. The protein concentration was determined by absorbance at 280 nm, using an extinction coefficient of 43810 M^−1cm^−1. The peptides were dissolved in the above-mentioned buffer. All isothermal titration calorimetry experiments were performed with a MicroCal^TM ITC200 instrument equilibrated to a temperature of 25°C (298oK). The concentration of uPA-H99Y catalytic domain used in the 200 µl sample cell was 5–50 µM, depending on the affinity of the ligand. Titrations were performed by injecting 2 µl of the ligand until the total syringe volume of 40 µl was spent. Titration of ligand into buffer was performed to obtain buffer correction. The equilibrium association constant KA and the reaction enthalpy ΔH were calculated by fitting the integrated titration peaks using a one-binding-site model in the ITC ORIGIN7 programme package. The following formulas for Gibbs free energy ΔG were used to analyse the measured energies
[drawing 4] (4) where R is the gas constant and T the absolute temperature. ΔS, the entropic change during the reaction, was calculated using equations 3 and 4 and the measured K A and ΔH values.

[7] = molecular target: T6, muPA Y99A (Mus musculus, UniProt P06869, Y274A); test: Ki for inhibition of muPA-Y99A, chromogenic substrate; assay type: biochemical, murine; conditions: means ± S.D.; read-out: K i for inhibition of muPA-Y99A
T6 construct: To ensure that the uPAs purified from the conditioned media were completely in the two-chain form, they were treated with plasmin; hexa-His (C); made in house; host or cells: HEK293 6E suspension cells
From the text: as §1, §2, §3

[8] = molecular target: T7, muPA S190A (Mus musculus, UniProt P06869, S373A); test: Ki for inhibition of muPA-S190A, chromogenic substrate; assay type: biochemical, murine; conditions: means ± S.D.; read-out: K i for inhibition of muPA-S190A
T7 construct: To ensure that the uPAs purified from the conditioned media were completely in the two-chain form, they were treated with plasmin; hexa-His (C); made in house; host or cells: HEK293 6E suspension cells
From the text: as §1, §2, §3

[9] = molecular target: T8, muPA K143A (Mus musculus, UniProt P06869, K322A); test: Ki for inhibition of muPA-K143A, chromogenic substrate; assay type: biochemical, murine; conditions: means ± S.D.; read-out: K i for inhibition of muPA-K143A
T8 construct: To ensure that the uPAs purified from the conditioned media were completely in the two-chain form, they were treated with plasmin; hexa-His (C); made in house; host or cells: HEK293 6E suspension cells
From the text: as §1, §2, §3

[10] = molecular target: T2, huPA-H99Y; test: Surface plasmon resonance analysis of peptide binding to huPA-H99Y; conditions: SPR
Protocol: as §4, §5

[11] = molecular target: T9, huPA-H99Y K143A (Homo sapiens, UniProt P00749, H272Y/K320A); test: Ki for inhibition of huPA-H99Y-K143A, chromogenic substrate; assay type: biochemical; conditions: 37°C; means ± S.D.; read-out: K i for inhibition of huPA-H99Y-K143A
T9 construct: To ensure that the uPAs purified from the conditioned media were completely in the two-chain form, they were treated with plasmin; hexa-His (C); made in house; host or cells: HEK293 6E suspension cells
From the text: as §1, §2, §3

[12] = molecular target: T10, muPA V213T (Mus musculus, UniProt P06869, V396T); test: Ki for inhibition of muPA-V213T, chromogenic substrate; assay type: biochemical, murine; conditions: means ± S.D.; read-out: K i for inhibition of muPA-V213T
T10 construct: To ensure that the uPAs purified from the conditioned media were completely in the two-chain form, they were treated with plasmin; hexa-His (C); made in house; host or cells: HEK293 6E suspension cells
From the text: as §1, §2, §3

[13] = molecular target: T11, huPA-H99Y V41A (Homo sapiens, UniProt P00749, H272Y/V208A); test: Ki for inhibition of huPA-H99Y-V41A, chromogenic substrate; assay type: biochemical; conditions: 37°C; means ± S.D.; read-out: K i for inhibition of huPA-H99Y-V41A
T11 construct: To ensure that the uPAs purified from the conditioned media were completely in the two-chain form, they were treated with plasmin; hexa-His (C); made in house; host or cells: HEK293 6E suspension cells
From the text: as §1, §2, §3

[14] = molecular target: T12, muPA wt (Mus musculus, UniProt P06869); conditions: means ± S.D.; starred values reproduced from previous publications; ref Andersen et al., 2008; Hosseini et al., 2011; read-out: K i for inhibition of muPA wt; cited from earlier work
T12 construct: To ensure that the uPAs purified from the conditioned media were completely in the two-chain form, they were treated with plasmin; hexa-His (C); made in house; host or cells: HEK293 6E suspension cells

[15] = molecular target: T2, huPA-H99Y; conditions: 37°C; means ± S.D.; starred values reproduced from previous publications; ref Andersen et al., 2008; Hosseini et al., 2011; read-out: K i for inhibition of huPA-H99Y; cited from earlier work
[16] = 25°C, pH 7.4, calculated as k off/k on, read-out: K D, huPA-H99Y

T6 sequence (P06869 180-433 Y274A): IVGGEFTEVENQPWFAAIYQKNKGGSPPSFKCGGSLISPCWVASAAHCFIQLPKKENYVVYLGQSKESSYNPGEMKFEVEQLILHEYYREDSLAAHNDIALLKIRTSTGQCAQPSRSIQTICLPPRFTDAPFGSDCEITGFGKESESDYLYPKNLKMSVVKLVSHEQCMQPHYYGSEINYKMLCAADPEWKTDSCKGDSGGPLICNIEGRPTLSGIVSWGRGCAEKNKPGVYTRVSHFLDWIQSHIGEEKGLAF
T6 sequence (P06869 21-178 partner limits assumed): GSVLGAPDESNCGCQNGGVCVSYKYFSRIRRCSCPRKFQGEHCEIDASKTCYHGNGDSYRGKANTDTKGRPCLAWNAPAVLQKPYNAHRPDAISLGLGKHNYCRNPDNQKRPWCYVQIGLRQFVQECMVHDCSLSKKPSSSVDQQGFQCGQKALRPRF
T8 sequence (P06869 180-433 K322A): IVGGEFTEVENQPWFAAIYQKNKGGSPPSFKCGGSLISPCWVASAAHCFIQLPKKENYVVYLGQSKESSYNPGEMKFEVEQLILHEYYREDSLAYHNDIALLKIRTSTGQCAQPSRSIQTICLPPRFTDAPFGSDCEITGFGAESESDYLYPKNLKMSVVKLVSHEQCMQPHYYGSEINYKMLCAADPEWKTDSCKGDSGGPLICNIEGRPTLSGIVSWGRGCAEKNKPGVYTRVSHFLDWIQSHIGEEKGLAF
T8 sequence (P06869 21-178 partner limits assumed): as the sequence (P06869 21-178 partner limits assumed) above
T7 sequence (P06869 180-433 S373A): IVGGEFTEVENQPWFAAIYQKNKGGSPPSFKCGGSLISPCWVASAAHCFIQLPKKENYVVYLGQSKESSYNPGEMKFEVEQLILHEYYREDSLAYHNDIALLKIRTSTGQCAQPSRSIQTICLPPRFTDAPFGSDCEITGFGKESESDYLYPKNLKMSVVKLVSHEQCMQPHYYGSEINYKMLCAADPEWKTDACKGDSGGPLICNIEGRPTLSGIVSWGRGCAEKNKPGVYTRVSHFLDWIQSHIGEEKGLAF
T7 sequence (P06869 21-178 partner limits assumed): as the sequence (P06869 21-178 partner limits assumed) above
T4 sequence (P06869 180-433 K210A): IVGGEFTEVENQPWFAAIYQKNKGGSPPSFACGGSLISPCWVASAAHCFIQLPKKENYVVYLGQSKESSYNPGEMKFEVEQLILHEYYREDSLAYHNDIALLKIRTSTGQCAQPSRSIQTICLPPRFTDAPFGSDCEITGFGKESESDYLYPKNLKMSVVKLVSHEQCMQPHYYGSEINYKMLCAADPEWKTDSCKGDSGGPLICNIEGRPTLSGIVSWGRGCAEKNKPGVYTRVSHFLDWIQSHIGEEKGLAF
T4 sequence (P06869 21-178 partner limits assumed): as the sequence (P06869 21-178 partner limits assumed) above
T3 sequence (P06869 180-433 limits assumed): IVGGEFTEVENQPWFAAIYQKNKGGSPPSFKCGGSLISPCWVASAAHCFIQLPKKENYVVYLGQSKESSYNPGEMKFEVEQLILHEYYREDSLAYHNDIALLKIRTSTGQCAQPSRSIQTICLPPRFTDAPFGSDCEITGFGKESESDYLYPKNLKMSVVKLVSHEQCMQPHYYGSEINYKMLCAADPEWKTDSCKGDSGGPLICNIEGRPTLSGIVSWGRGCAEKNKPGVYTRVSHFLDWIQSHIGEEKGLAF
T3 sequence (P06869 21-178 partner limits assumed): as the sequence (P06869 21-178 partner limits assumed) above
T10 sequence (P06869 180-433 V396T): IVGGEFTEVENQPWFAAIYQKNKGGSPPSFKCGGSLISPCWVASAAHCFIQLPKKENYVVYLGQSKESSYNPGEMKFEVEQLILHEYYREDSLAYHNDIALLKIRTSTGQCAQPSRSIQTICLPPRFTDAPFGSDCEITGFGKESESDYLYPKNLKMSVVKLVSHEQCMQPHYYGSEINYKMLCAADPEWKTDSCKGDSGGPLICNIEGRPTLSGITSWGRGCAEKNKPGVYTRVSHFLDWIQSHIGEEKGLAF
T10 sequence (P06869 21-178 partner limits assumed): as the sequence (P06869 21-178 partner limits assumed) above
T12 sequence (P06869 180-433 limits assumed): as the sequence (P06869 180-433 limits assumed) above
T12 sequence (P06869 21-178 partner limits assumed): as the sequence (P06869 21-178 partner limits assumed) above

Structure (SMILES)	Ki [1] [nM]	Ki [2] [nM]	Ki [3] [nM]	k off, muPA [4]	k on, muPA [4]	Ki [5] [nM]	Kd [6] [nM]	Ki [7] [nM]	Ki [8] [nM]	Ki [9] [nM]	k off, huPA-H99Y ([10]; 25°C, pH 7.4)	k on, huPA-H99Y ([10]; 25°C, pH 7.4)	Kd [10, 16] [nM]	Ki [11] [nM]	Ki [12] [nM]	Ki [13] [nM]	Ki [14] [nM]	other results
CC(=O)N[C@H]1CSSC[C@@H](C(N)=O)NC(=O)[C@H](C)NC(=O)[C@H](CC(C)C)NC(=O)[C@H](Cc2ccc(O)cc2)NC(=O)[C@H](CC2CCN(C(=N)N)CC2)NC(=O)[C@H](CO)NC(=O)[C@H](Cc2ccc(O)cc2)NC(=O)[C@H](C)NC(=O)[C@@H]2CCCN2C1=O [Mupain-1-16 D9A, CPAYS[L-3-(N-amidino-4-piperidyl)alanine]YLAC] (Ac-CPAYS[Ala(1-amidino-4-piperidyl)]YLAC-NH2; disulfide 1-10)	174 ± 59	438 ± 72	309 ± 13	1.22±0.06 (3) s^−1, ×10^2	5.79±0.82 (3) M^−1s^−1, ×10^−5	14 ± 2	134 ± 61	1360 ± 330	529 ± 52	100 ± 20	3.33±0.13 (4) s^-1, ×10^2	4.65±0.27 (4) M^-1s^-1, ×10^-5	71.8 ± 6	188 ± 57	14 ± 4	480 ± 158	–	N [6]: 0.88±0.11 (5); TΔS [6]: −6.2±2.7 (5) ^1 kJ/mole; ΔG [6]: −39.5±1.1 (5) ^1 kJ/mole; ΔH [6]: −46.6±2.9 (5) ^1 kJ/mole
CC(=O)N[C@H]1CSSC[C@@H](C(N)=O)NC(=O)[C@H](CC(=O)O)NC(=O)[C@H](CC(C)C)NC(=O)[C@H](Cc2ccc(O)cc2)NC(=O)[C@H](Cc2ccc(NC(=N)N)cc2)NC(=O)[C@H](CO)NC(=O)[C@H](Cc2ccc(O)cc2)NC(=O)[C@H](C)NC(=O)[C@@H]2CCCN2C1=O [Mupain-1-12, CPAYS[4-guanidino-phenyl-alanine]YLDC] (Ac-CPAYS[Phe(4-guanidino)]YLDC-NH2; disulfide 1-10)	3260 ± 1040	2350 ± 740	–	1.92±0.63 (4) s^−1, ×10^2	1.56±0.95 (4) M^−1s^−1, ×10^−5	1720 ± 240	–	5200 ± 60	2300 ± 460	1000 ± 40	24.6±1.2 (4) s^-1, ×10^2	2.06±0.15 (4) M^-1s^-1, ×10^-5	1210 ± 130	2140 ± 780	86 ± 30	1600 ± 540	280 ± 20	Ki [15]: 1860 ± 740 nM; Kd ([10]; huPA-H99Y immobilized on CM5 chip, single example (S3 Fig), read-out: KD of fitted curve, representative sensorgram): 1320 nM; koff ([10]; huPA-H99Y immobilized on CM5 chip, single example (S3 Fig), read-out: koff of fitted curve, representative sensorgram): 0.248 s⁻¹; kon ([10]; huPA-H99Y immobilized on CM5 chip, single example (S3 Fig), read-out: kon of fitted curve, representative sensorgram): 188000 M⁻¹ s⁻¹
CC(=O)N[C@H]1CSSC[C@@H](C(N)=O)NC(=O)[C@H](C)NC(=O)[C@H](CC(C)C)NC(=O)[C@H](Cc2ccc(O)cc2)NC(=O)[C@H](CCCNC(=N)N)NC(=O)[C@H](CO)NC(=O)[C@H](Cc2ccc(O)cc2)NC(=O)[C@H](C)NC(=O)[C@@H]2CCCN2C1=O [Mupain-1 D9A, CPAYSRYLAC] (Ac-CPAYSRYLAC-NH2; disulfide 1-10)	2680 ± 290	4850 ± 320	5990 ± 430	4.01±0.31 (3) s^−1, ×10^2	0.985±0.169 (3) M^−1s^−1, ×10^−5	270 ± 29	1170 ± 300	27200 ± 3300	3020 ± 330	4340 ± 640	36.6±0.21 (3) s^-1, ×10^2	2.60±0.20 (3) M^-1s^-1, ×10^-5	1410 ± 110	8740 ± 640	373 ± 55	7200 ± 1440	890 ± 20	–
